Experimental data reported in patent US5354913A, “Optically active phenol derivatives and preparation thereof” (Takeda Chemical Industries, Ltd., priority 1992, dated 1994).

Columns and labels:
human platelets = test: U-46619 (thromboxane A2 mimic)-induced aggregation in human platelets (Experiment 2); assay type: cell-based; settings: Platelet, U-46619 10^-5 ~3×10^-5 M; for inhibition at 0.3 µM: 3 × 10^-7 M; for inhibition at 0.1 µM: 10^-7 M
Protocol: Thromboxane A2 antagonistic activity Effect on thromboxane A2 minic (U-46619) - induced aggregation in human platelets.
(§1) Method: Blood was collected in 3.15% sodium citrate (0.1 ml for 0.9 ml of blood) by aortic puncture from anesthetized guinea-pigs. Citrated blood samples were centrifuged at 950 rpm for 10 minutes and 2,000 rpm for 10 minutes at room temperature to obtain platelet-rich plasma (PRP) and platelet-poor plasma (PPP), respectively. The platelet count of PRP was adjusted to 300,000/μl with PPP. Platelet aggregation was measured with a photometer (Hematracer 6, Niko Bioscience, Japan). PRP (250 μl) was preincubated at 37° C. for 2 minutes and then incubated for 2 minutes with drug solution (25 μl), followed by stimulation with U-46619 (25 μl). Effect of drug was shown as the percent inhibition of maximal aggregation of drug-treated group versus that of control group. The concentration of U-46619 was chosen to obtain submaximal aggregation in each PRP (10^-5 ~3×10^-5 M).

guinea-pig platelets = test: U-46619 (thromboxane A2 mimic)-induced aggregation in guinea-pig platelets (Experiment 1); assay type: cell-based; settings: guinea-pig PRP, U-46619 3×10^-7 M
Protocol: Thromboxane A2 antagonistic activity Effect on thromboxane A2 minic (U-46619) - induced aggregation in guinea-pig platelets.
as §1, with “5,000,000/μl” for “300,000/μl”, “(3×10^-7” for “(10^-5 ~3×10^-5”

[1] = system: U-46619 (TXA2 minic) - induced bronchoconstriction in guinea pig; test: Inhibitory effect on U-46619 (TXA2 mimic)-induced bronchoconstriction in guinea pig (Experiment 4); assay type: in vivo; settings: orally 1 hour before U-46619 (10 μg/kg), p < 0.01 vs control group
Protocol: Inhibitory effect on U-46619 (TXA2 minic) - induced bronchoconstriction in guinea pig.
Method: Six male Hartley guinea pig were used per one group. The guinea pig anesthetized with urethane (1.5 g/kg, i.p.) was fixed in a dorsal position, subjected to tracheotomy and connected to a respirator through a cannula. A side branch of the tracheal cannula was connected to a respirator (Harvard apparatus rodent respirator Type 680) at the rate of 70 strokes/min. and a constant volume of 3 to 5 ml.
Inflation pressure was kept constant at 10 cm H2 O.
After treatment with gallamine triethiodide (1 mg/kg, i.v.), U-46619 (10 μg/kg) dissolved in a physiolosical saline solution was given through a carotid cannula and the airway resistance was measured by the overflow technique of Konzett-Rossler method (Konzett, H. and Rossler, R., Naunyn-Schmiedegerg's Arch, Exp. Path. Pharmak., 195, 71-74 (1940)). A test compound was suspended in 5% gum arabic solution and was administered orally 1 hour before the tratment with U-46619.

rats = test: Oral toxicity in rats, 2 weeks; assay type: in vivo, rat; settings: orally, 1000 mg/kg/day for 2 weeks, 3 rats
Protocol: Toxicity of the derivatives of the present invention is low. For example, in case that (R)-7-(4-fluorophenyl)-7-(5-hydroxy-6,7-dimethyl-l-oxoindan-4-yl)heptanoicacid was administered orally to 3 rats at a dose of 1000 mg/kg/day for 2 weeks, no rat died. The derivatives of the present invention can be safely administered orally or parenterally as they are or as pharmaceutical compositions of known forms obtained by admixing them with known pharmaceutically acceptable carriers, excipients and the like, for example, tablets, capsules (including soft capsules and micro-capsules), liquids, injection preparations, suppositories and the like, according to pharmaceutically acceptable methods. The dosage is varied according to patients, routes of administration, conditions of diseases to be treated and the like. However, in the case of oral administration to, for example, an adult patient, usually, a dose per one administration is about 0.1 to 20 mg/kg of the body weight, perferably, about 0.1 to 10 mg/kg of the body weight and, conveniently, the administration is carried out one to two times per day.

[2] = system: guinea pig tracheal strip; test: Inhibitory effect on U-46619 (TXA2 mimic)-induced contraction in guinea pig tracheal strip (Experiment 3); settings: Cavia porcellus; U-46619 10^-8 M; compound added 1 minute before; read-out: IC50 (Concentration for 50% inhibition)
Protocol: Inhibitory effect on U-46619 (TXA2 minic) - induced contraction in guinea pig tracheal strip
Method: Guinea pig tracheae were removed, and tracheal strips were prepared. Each strip was placed in a 10 ml organ bath containing Tyrode's solution aerated with 5% CO2 -95% O2 gas at 37° C. The tracheal strip was placed under resting tension of 1 g. The contractile response of the strip to thromboxane A2 minic U-46619 (10^-8 M) were examined. The strip was treated with the test compound for 1 minute before the addition of U-46619.
Result: The results are shown in Table 10 as the concentration for 50% inhibition (IC50).

Row | SMILES | inhibition at 0.3 µM (human platelets) [%] | inhibition at 0.03 µM (human platelets; 3 × 10^-8 M) [%] | inhibition at 0.1 µM (human platelets) [%] | inhibition at 0.01 µM (human platelets; 10^-8 M) [%] | % Inhibition of aggregation (guinea-pig platelets; 3 × 10^-8 M) [%] | % Inhibition of aggregation (guinea-pig platelets; 10^-7 M) [%] | % Inhibition of aggregation (guinea-pig platelets; 10^-8 M) [%] | inhibition at 0.3 µM (guinea-pig platelets; Cavia porcellus, Platelet, 3 × 10^-7 M) [%] | % Inhibition ([1]; 0.31 mg/kg) [%] | % Inhibition ([1]; 1.25 mg/kg) [%] | mortality (rats) | IC50 [2] [nM]
1 | Cc1c(C)c2c(c([C@H](CCCCCC(=O)O)c3ccc(F)cc3)c1O)CCC2=O [Compound 28, (R)-7-(4-fluorophenyl)-7-(5-hydroxy-6,7-dimethyl-1-oxoindan-4-yl)heptanoic acid] | 100 | 30 | 78 | 13 | 5 | 36 | 0 | 89 | 84 | 84 | no rat died | 0.7
2 | Cc1c(C)c(CO)c(C)c([C@H](CCCCCC(=O)O)c2ccc(F)cc2)c1O [Compound 20, (R)-7-(4-fluorophenyl)-7-(2-hydroxy-5-hydroxylmethyl-3,4,6-trimethylphenyl)heptanoic acid] | 100 | – | 48 | – | 12 | 77 | 3 | – | – | – | – | –
